Reference: PubChem BioAssay (NCI)
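Results reflect a 48-hour exposure of cells in 96-well plates to compound at five concentrations. At the TGI there is no net growth.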

Columns and labels:
Test in all cases: NCI-60 cell line screen, 48 h
SK-MEL-28 melanoma = system: SK-MEL-28 melanoma
HOP-92 NSCLC = system: HOP-92 NSCLC
CAKI-1 renal = system: CAKI-1 renal
TK-10 renal = system: TK-10 renal
RPMI-8226 leukemia = system: RPMI-8226 leukemia
LOX IMVI melanoma = system: LOX IMVI melanoma
A498 renal = system: A498 renal
PC-3 prostate = system: PC-3 prostate
MALME-3M melanoma = system: MALME-3M melanoma
SN12C renal = system: SN12C renal
HCC-2998 colon = system: HCC-2998 colon

Structure (SMILES)	TGI (SK-MEL-28 melanoma) [µM]	TGI (HOP-92 NSCLC) [µM]	TGI (CAKI-1 renal) [µM]	TGI (TK-10 renal) [µM]	TGI (RPMI-8226 leukemia) [µM]	TGI (LOX IMVI melanoma) [µM]	TGI (A498 renal) [µM]	TGI (PC-3 prostate) [µM]	TGI (MALME-3M melanoma) [µM]	TGI (SN12C renal) [µM]	TGI (HCC-2998 colon) [µM]
CCCCCN1C(=O)C(Cc2ccccc2)N=C(c2ccc(O)cc2)c2cc(Cl)ccc21 (stereo not drawn)	29.7	25	35.1	31.2	12.1	18.5	> 48.4	27.3	23.6	> 39.6	
O=C(O)C12C3CCC(C3)C1(C(=O)O)C1CCC2C1 (stereo not drawn)	> 100	> 100	> 100	> 100	48.4	58.1	> 100		> 100	> 100	> 100
COc1ccc(C[C@H]2COC(=O)[C@@H]2Cc2ccc(Br)cc2)cc1OC	> 100	79.5	> 84	> 94.2	> 100	37.8		52.1	> 89.5	> 100	> 100
N#CCCC(C#N)(C#N)CCC#N	> 100			> 100	> 100	> 100			> 100	> 100	> 100
CO[P@@]1(=O)O[C@@H](c2ccccc2)[C@H](O)[C@@]1(O)c1ccccc1	> 100	> 100	> 100	> 100		> 100	> 100	> 100	> 100	> 100	
Nc1ccc(Oc2ccc(C34CC5C6CC7(c8ccc(Oc9ccc(N)cc9)cc8)CC5C(C3)C(C7)C6C4)cc2)cc1	> 100	> 100	> 100	> 100	> 100	> 100	> 100	> 100	> 100	> 100	
Cc1ccc(S(=O)(=O)c2ccc(C)cc2[N+](=O)[O-])c([N+](=O)[O-])c1	> 100			> 100	> 100	> 100			> 100	> 100	> 100
COc1cc2ccnc(C#N)c2cc1OCc1ccccc1	> 100		> 100	> 100	> 100		> 100		> 100	> 100	> 100
CC(CC(=O)N1C2CC3CCC2(CS1(=O)=O)C3(C)C)[Si](C)(C)C (stereo not drawn)	> 100		> 100	> 100	> 100	> 100		> 100	> 100	> 100	> 100
O=c1[nH]c(=O)n([C@H]2C[C@@H](CO)[C@@H](O)C2)cc1I	> 100	> 100	> 100	> 100	> 100	> 100	> 100		> 100	> 100	> 100
COc1ccccc1N1CCN(S(=O)(=O)c2ccc(Cl)cc2)C1=N	> 100		> 100	> 100	> 100		> 100	> 100		> 100	
CC(=O)N1C(c2[nH]c3ccccc3c2Cc2ccccc2)CCN1c1ccccc1 (stereo not drawn)	> 10		> 10	> 10	> 10	> 10		> 10	> 10	> 10	> 10
c1ccc2c(c1)nc1ccccn12	> 100	> 100		> 100	> 100		29.5	> 100	> 100	> 100	> 100
CC(C)CCNC(=O)c1ccc(CNC(=O)/C=C/c2ccc3ccccc3c2)cc1	> 100	> 100	> 100		> 100	> 100	> 100	> 100		> 100	> 100
C1CSCCSCCSCCSCCS1	> 100	> 100	> 100	> 100	> 100	> 100	> 100	> 100		> 100	> 100
O=C1C(Cl)C(c2ccc(O)cc2)N1n1cnc2ccccc2c1=O (stereo not drawn)	70.2	> 100	> 60.3	> 100	57.7	45.3	> 100		> 83.9	> 100	> 100
Cc1c2c(n3c(nc4ccccc43)c1C#N)N(c1ccc(F)cc1)CC2	> 100	> 100	> 100	> 100		> 100	> 100	> 100	> 100	> 100	> 100
Cc1cc2c(cc1Cl)SC(NNCCO)=NS2(=O)=O	> 100	> 100	> 100	> 100	> 100	> 100		> 100			> 100
CN1N=C(c2ccncc2)OC1c1cccc(F)c1 (stereo not drawn)	> 100			> 100	> 100	> 100	> 100	> 100		> 100	> 100
COC(=O)C(=O)C(C(=O)OC)C(=O)C(=O)Nc1cc(Cl)c(C)cc1S(=O)(=O)O (stereo not drawn)	> 100		> 100	> 100		> 100	> 100		> 100	> 100	> 100
CC(C)N(C(C)C)S(=O)(=O)CC12CCC(C/C1=N\O)C2 (stereo not drawn)	> 100		> 100	> 100		> 100		> 100	> 100	> 100	> 100
COC(C)=NCCC1=CCCCC1	> 100	> 100	> 100	> 100	> 100		> 100	> 100	> 100		> 100
COP12(OC)NC(=O)OC1(C(F)(F)F)c1ccccc1O2 (stereo not drawn)	> 100			> 100		> 100			> 100	> 100	
CC(=O)Oc1ccc2c(c1)[nH]c1c3ccc(OC(C)=O)cc3oc(=O)c21	> 100	> 100	> 100	> 100				> 100	> 100	> 100	67.7
